Assay results: patent US6812243B2, “Indole derivatives and their use for the treatment of malignant and other diseases based on pathological proliferation” (Zentaris AG, priority 1998, dated 2004)

| Compound | melting point |
| --- | --- |
| CN1C(=O)C(Br)=C(c2c(CCCCCCCCc3[nH]c4ccccc4c3C3=C(Br)C(=O)N(C)C3=O)[nH]c3ccccc23)C1=O [Example 118, 3-Bromo-4-(2-(8-(3-(4-bromo-1-methyl-2,5-dioxo-2,5-dihydro-1H-3-pyrrolyl)-1H-2-indolyl)octyl)-1H-3-indolyl)-1-methyl-2,5-dihydro-1H-pyrrole-2,5-dione] | 185 °C (dec.) |
| O=C1NC(=O)C(c2c(CCCCCc3[nH]c4ccccc4c3C3=C(Br)C(=O)NC3=O)[nH]c3ccccc23)=C1Br [Example 114, 3-Bromo-4-(2-(5-(3-(4-bromo-2,5-dioxo-2,5-dihydro-1H-3-pyrrolyl)-1H-2-indolyl)pentyl)-1H-3-indolyl)-2,5-dihydro-1H-pyrrole-2,5-dione] | > 350 °C (dec.) |
| CN1C(=O)C(Br)=C(c2c(CCCCc3[nH]c4ccccc4c3C3=C(Br)C(=O)N(C)C3=O)[nH]c3ccccc23)C1=O [Example 117, 3-Bromo-4-(2-(4-(3-(4-bromo-1-methyl-2,5-dioxo-2,5-dihydro-1H-3-pyrrolyl)-1H-2-indolyl)butyl)-1H-3-indolyl)-1-methyl-2,5-dihydro-1H-pyrrole-2,5-dione] | 190 °C (dec.) |
| COc1ccc2c(c1)cc(Cc1cc3cc(OC)ccc3n1S(=O)(=O)c1ccccc1)n2S(=O)(=O)c1ccccc1 [Example 71, Bis(5-methoxy-N-phenylsulphonylindol-2-yl)methane] | 159 to 160 °C |
| O=C1C2=C(C(=O)N1COCc1ccccc1)c1c([nH]c3ccccc13)Cc1[nH]c3ccccc3c12 [Example 85, 2-Benzyloxymethyl-1,2,3,8,9,10-hexahydroindolo-[3′,2′:5,6]-pyrrolo[3′,4′:3,4]-cyclohepta[b]indole-1,3-dione] | > 350 °C |
| COc1ccc2c(c1)cc(C(OC)(c1ccccc1)c1cc3cc(OC)ccc3n1S(=O)(=O)c1ccccc1)n2S(=O)(=O)c1ccccc1 [Example 7, Di-(5-Methyloxy-1-phenylsulphonylindol-2-yl)phenyl-methyloxymethane] | 100 to 101 °C |
| O=C1NC(=O)C(c2c(CCCCCCCCCCc3[nH]c4ccccc4c3C3=C(Br)C(=O)NC3=O)[nH]c3ccccc23)=C1Br [Example 120, 3-Bromo-4-(2-(10-(3-(4-bromo-2,5-dioxo-2,5-dihydro-1H-3-pyrrolyl)-1H-2-indolyl)decyl)-1H-3-indolyl)-2,5-dihydro-1H-pyrrole-2,5-dione] | 164 °C (dec.) |
| COc1ccc2c(c1)cc(Cc1cc3ccccc3n1S(=O)(=O)c1ccccc1)n2S(=O)(=O)c1ccccc1 [Example 72, (5-Methoxy-N-phenylsulphonylindol-2-yl)-(N-phenyl-sulphonylindol-2-yl)methane] | 98 to 100 °C |
| COc1ccc2cc(C(=O)c3cc4ccccc4n3S(=O)(=O)c3ccccc3)n(S(=O)(=O)c3ccccc3)c2c1 [Example 31, 6-Methoxy-1-phenylsulphonyl-1H-2-indolyl(1-phenylsulphonyl-1H-2-indolyl)methanone] | 184 to 186 °C |
| O=C1NC(=O)C(c2c(CCCCCCCCc3[nH]c4ccccc4c3C3=C(Br)C(=O)NC3=O)[nH]c3ccccc23)=C1Br [Example 115, 3-Bromo-4-(2-(8-(3-(4-bromo-2,5-dioxo-2,5-dihydro-1H-3-pyrrolyl)-1H-2-indolyl)octyl)-1H-3-indolyl)-2,5-dihydro-1H-pyrrole-2,5-dione] | 180 °C (dec.) |
| COc1ccc2c(c1)cc(Cc1cc3cccc(OC)c3n1S(=O)(=O)c1ccccc1)n2S(=O)(=O)c1ccccc1 [Example 73, (5-Methoxy-N-phenylsulphonylindol-2-yl)-(7-methoxy-N-phenylsulphonylindol-2-yl)methane] | 168 to 170 °C |
| COc1cccc2cc(C(=O)c3cc4ccccc4n3S(=O)(=O)c3ccccc3)n(S(=O)(=O)c3ccccc3)c12 [Example 29, 7-Methoxy-1-phenylsulphonyl-1H-2-indolyl(1-phenyl-sulphonyl-1H-2-indolyl)methanone] | 129 to 130 °C |
| CN(C)CCn1c2c(c3ccccc31)C1=C(C(=O)OC1=O)c1c([nH]c3ccccc13)C2 [Example 87, 3,8,9,10-Tetrahydro-8-[2-(N,N-dimethylamino)ethyl]-1H-indolo[3′,2′:5,6]furo[3′,4′:3,4]cyclohepta[b]indole-1,3-dione] | > 350 °C |
| CN(C)CCn1c2c(c3ccccc31)C1=C(C(=O)N(COCc3ccccc3)C1=O)c1c([nH]c3ccccc13)C2 [Example 88, 2-Benzyloxymethyl-1,2,3,8,9,10-hexahydro-8-[2-(N,N-di-methylamino)ethyl]indolo[3′,2′:5,6]pyrrolo[3′,4′:3,4]-cyclohepta[b]indole-1,3-dione] | 164 to 165 °C |
| CN1C(=O)C(Br)=C(c2c(CCCCCc3[nH]c4ccccc4c3C3=C(Br)C(=O)N(C)C3=O)[nH]c3ccccc23)C1=O [Example 112, 3-Bromo-4-(2-(5-(3-(4-bromo-1-methyl-2,5-dioxo-2,5-dihydro-1H-3-pyrrolyl)-1H-2-indolyl)pentyl)-1H-3-indolyl)-1-methyl-2,5-dihydro-1H-pyrrole-2,5-dione] | 137 °C (dec.) |
| CN1C(=O)C(Br)=C(c2c(CCc3[nH]c4ccccc4c3C3=C(Br)C(=O)N(C)C3=O)[nH]c3ccccc23)C1=O [Example 116, 3-Bromo-4-(2-(2-(3-(4-bromo-1-methyl-2,5-dioxo-2,5-dihydro-1H-3-pyrrolyl)-1H-2-indolyl)ethyl)-1H-3-indolyl)-1-methyl-2,5-dihydro-1H-pyrrole-2,5-dione] | 179 °C |
| CN(C)Cc1c(C(O)c2cc3ccccc3n2S(=O)(=O)c2ccccc2)n(S(=O)(=O)c2ccccc2)c2ccccc12 (stereo not drawn) [Example 8, (3-Dimethylaminomethyl-1-phenylsulphonylindol-2-yl)(1-phenylsulphonylindol-2-yl)methan-1-ol] | 116 to 117 °C |
| CN1C(=O)C(c2c(CCCCCc3[nH]c4ccccc4c3C3=C(N4CCCCC4)C(=O)N(C)C3=O)[nH]c3ccccc23)=C(N2CCCCC2)C1=O [Example 124, 1-Methyl-3-(1-piperidinyl)-4-(2-(5-(3-(1-methyl-4-(1-piperidinyl)-2,5-dioxo-2,5-dihydro-1H-3-pyrrolyl)-1H-2-indolyl)pentyl)-1H-3-indolyl)-2,5-dihydro-1H-pyrrole-2,5-dione] | 262 °C |
| COc1ccc2cc(C(O)c3cc4ccccc4n3S(=O)(=O)c3ccccc3)n(S(=O)(=O)c3ccccc3)c2c1 (stereo not drawn) [Example 11, 6-Methoxy-1-phenylsulphonyl-1H-2-indolyl(1-phenylsulphonyl-1H-2-indolyl)methanol] | 180 °C |

Continued, values first:

| melting point | Compound |
| --- | --- |
| 110 to 113 °C | O=C(c1cc2ccccc2[nH]1)c1cc2cc(OCCCCI)ccc2[nH]1 [Example 47, 5-(4-Iodobutyloxy)-1H-2-indolyl(1H-2-indolyl)methanone] |
| 151 °C | COc1cccc2cc(C(=O)c3cc4ccccc4[nH]3)[nH]c12 [Example 30, 7-Methoxy-1H-2-indolyl(1H-2-indolyl)methanone] |
| > 350 °C | CN1C(=O)C2=C(C1=O)c1c([nH]c3ccccc13)CCc1[nH]c3ccccc3c12 [Example 84, 1,2,3,8,9,10,11-Heptahydro-2-methylindolo[3′,2′:5,6]-pyrrolo[3′,4′:3,4]-cycloocta[b]indole-1,3-dione] |
| 127 to 130 °C | O=C(c1cc2ccccc2[nH]1)c1cc2cc(OCCCCCI)ccc2[nH]1 [Example 50, 5-(5-Iodopentyloxy)-1H-2-indolyl(1H-2-indolyl)methanone] |
| 297 to 299 °C | O=C(c1c[nH]c2ccccc12)c1c[nH]c2ccccc12 [Example 94, Bis(indol-3-yl)methanone] |
| 200 °C | COc1ccc2[nH]c(C(=O)c3cc4ccccc4s3)cc2c1 [Example 28, Benzo[b]thiophen-2-yl(5-methoxy-1H-2-indolyl)-1-methanone] |
| 125 °C (dec.) | CN1C(=O)C(Br)=C(c2c(CCCCCc3cc4ccccc4[nH]3)[nH]c3ccccc23)C1=O [Example 93, 3-Bromo-4-(2-(5-(1H-2-indolyl)pentyl)-1H-3-indolyl)-1-methyl-2,5-dihydro-1H-pyrrole-2,5-dione] |
| 205 °C | COc1ccc2c(c1)cc(C(=O)c1cc3ccccc3n1S(=O)(=O)c1ccccc1)n2S(=O)(=O)c1ccccc1 [Example 17, (5-Methoxy-N-phenylsulphonylindol-2-yl)-(N-phenylsulphonylindol-2-yl)methan-1-one] |
| 168 to 169 °C | CCOc1ccc2[nH]c(C(=O)c3cc4ccccc4[nH]3)cc2c1 [Example 44, 5-Ethoxy-1H-2-indolyl(1H-2-indolyl)methanone] |
| 169 °C | CN1C(=O)C(Br)=C(c2c(CCc3cc4ccccc4[nH]3)[nH]c3ccccc23)C1=O [Example 91, 3-Bromo-4-(2-(2-(1H-2-indolyl)ethyl)-1H-3-indolyl)-1-methyl-2,5-dihydro-1H-pyrrole-2,5-dione] |
| 112 °C | COc1ccc2[nH]c(C(=O)c3cc4ccccc4[nH]3)cc2c1 [Example 75, (5-Methoxyindol-2-yl)-(indol-2-yl)methanone] |
| 202 to 204 °C | COc1ccc2[nH]c(C(=O)c3cc4cc(OC)ccc4[nH]3)cc2c1 [Example 21, Bis(5-methoxyindol-2-yl)-1-methanone] |
| 199 to 201 °C | O=C(c1cc2ccccc2[nH]1)c1cc2cc(OCc3ccccc3)ccc2[nH]1 [Example 42, 5-Benzyloxy-1H-2-indolyl(1H-2-indolyl)methanone] |
| 165 °C (dec.) | CN1C(=O)C(Br)=C(c2c(CCCCc3cc4ccccc4[nH]3)[nH]c3ccccc23)C1=O [Example 92, 3-Bromo-4-(2-(4-(1H-2-indolyl)butyl)-1H-3-indolyl)-1-methyl-2,5-dihydro-1H-pyrrole-2,5-dione] |
| > 230 °C | CCC(=O)Oc1ccc2[nH]c(C(=O)c3cc4ccccc4[nH]3)cc2c1 [Example 57] |
| > 350 °C | COc1ccc2[nH]c3c(c2c1)C1=C(C(=O)NC1=O)c1c([nH]c2ccccc12)C3 [Example 82, 1,2,3,8,9,10-Hexahydro-5-methoxyindolo[3′,2′:5,6]-pyrrolo[3′,4′:3,4]-cyclohepta[b]indole-1,3-dione] |
| 185 °C (dec.) | O=C(c1cc2ccccc2[nH]1)c1cc2cc(OCC3CCCCC3)ccc2[nH]1 [Example 49, 5-Cyclohexylmethyloxy-1H-2-indolyl(1H-2-indolyl)-methanone] |
